The subject of one data set is Reserpine ptosis. Description: inhibition of reserpine ptosis (oral). It counts as in vivo. The following applies: Mus musculus, 1.5 h, Swiss mice, reserpine 5 mg/kg intraperitoneal, compounds orally at the same time, ptosis marked 1 h 30 min later. As for the experimental part: The mood-modifying activity of the compounds is evaluated by standardized tests such as inhibition of known reserpine ptosis. Reserpine ptosis may be induced by methods such as those described in the literature. For example, Rubin, et al, [J. Pharmacol, Exp. Ther. 120: 125(1957)] induced ptosis in Swiss mice by intraperitoneal injection of 5 mg/kg of reserpine. This ptosis was marked 1 h 30 min later. Compounds to be tested for reserpine inhibition were administered orally at the same time as the reserpine was injected.

Data set [1] in a line: lethal dose (LD50) determined orally in Swiss mice. The note with it: mouse, in vivo, oral.

Broadly, the ED50 is the dose that gives a 50% effect, or the effect in half of the subjects. A word on the LD50: it is the dose at which mortality reaches 50%. The low end stands for greater toxicity, the high end for lower toxicity.

Counter-ions that a name gives are not always drawn.

For the compound `CN(C)CCC=C1c2ccccc2CCc2ccccc21` [AMITRIPTYLINE, 5-(3-dimethylaminopropylidene)dibenzo[a,d]-1,4-cycloheptadiene hydrochloride, reference compound], in the data set with Reserpine ptosis, it took a dose of 10 mg/kg to reach the 50% effect level (ED50). For `NC1=Nc2ccccc2C(c2ccccc2)CN1` (centres unmarked) [Example 1, 2-Amino-5-phenyl-4,5-3H-dihydro-1,3-benzodiazepine hydrochloride], in data set [1], the LD50 stood at 600 mg/kg. Also, it took a dose of 18 mg/kg to reach the 50% effect level with Reserpine ptosis (ED50). In turn, `Cc1ccc(C2CNC(N)=Nc3ccccc32)cc1` (centres unmarked) [Example 3, 2-Amino-5-(4-methylphenyl)-4,5-3H-hydro-1,3-benzodiazepine hydrochloride] returned an LD50 in data set [1] of 330 mg/kg. Further, the ED50 in the data set with Reserpine ptosis turned out to be 10 mg/kg.

Take `NC1=Nc2ccccc2C(c2ccc(Cl)cc2)CN1` (centres unmarked) [Example 4, 2-Amino-5-(4-chlorophenyl)-4,5-3H-dihydro-1,3-benzodiazepine hydrochloride]: the LD50 in data set [1] amounted to 1200 mg/kg. The compound also gave an ED50 in the data set with Reserpine ptosis of 11 mg/kg. `Cc1ccc(C2CNC(N)=Nc3ccc(C)cc32)cc1` (centres unmarked) [Example 8, 2-Amino-7-methyl-5-(4-methylphenyl)-4,5-3H-dihydro-1,3-benzodiazepine hydrochloride]: in data set [1], the 50% lethal dose (LD50) was found to be 2400 mg/kg. In the data set on Reserpine ptosis, the ED50 was 3 mg/kg. Regarding `CCOC(=O)NC1=Nc2ccccc2C(c2ccccc2)CN1` (centres unmarked) [Example 48, 2-amino-(5-Phenyl-4,5-3H-dihydro-1,3-benzodiazepin)yl ethyl carbamate], in data set [1], the LD50 was greater than 3200 mg/kg. Moreover, the 50% effect level in the data set on Reserpine ptosis (ED50) was put at a dose of 13 mg/kg.

The values above are taken from patent US4554273A, “2-Amino-5-phenyl-1,3-benzodiazepines” (Lipha Lyonnaise Industrielle Pharmaceutique, priority 1983, dated 1985).
